Key:
H22 tumors = assay: Anti-tumor efficacy of Compound 1 with and without anti-PD-L1 in the H22 subcutaneous syngeneic model (Example 6); assay type: in vivo, mice
Method: Female BALB/c mice were inoculated subcutaneously at right flank with H22 tumor cells for tumor development. Treatment began on Day 6 post tumor inoculation and the mice were treated for 21 days. Tumor and weight measurements were continued for the duration of the study, and the survival was recorded until Day 106. The results are summarized Table 6-1, Table 6-2, and FIG. 23. In all cases the dosing volume was 10 ml/kg. PD-L1 antibody was obtained from Bioxcell.

MC-38 tumors [1] = assay: Anti-tumor efficacy of Compound 1 with and without anti-PD-1 in the subcutaneous MC-38 model (Example 4); assay type: in vivo, Mus musculus; settings: for MST: endpoint tumor volume 2000 mm^3; for T/C / TGI: Day 12
Method: Tumor sizes were measured three times a week in two dimensions using a caliper, and the volume expressed in mm^3 using the formula: V=0.5 a×b^2 where a and b are the long and short diameters of the tumor, respectively. The tumor sizes were then used for the calculations of both tumor growth inhibition (TGI) and T/C values.
TGI is calculated for each group using the formula: […]
TVTreatment_DayN is the average tumor volume of a treatment group on a given day, TVTreatment_Day0 is the average tumor volume of the treatment group on the first day of treatment, TVVehicle_DayN is the average tumor volume of the vehicle control group on a given day, and TVVehicle_Day0 is the average tumor volume of the vehicle group on the first day of treatment.
The T/C value (in percent) is an indication of antitumor effectiveness, T/C (%)=RTVTreatment/RTVControl×100% (RTVTreatment: the mean RTV of the treatment group; RTVControl: the mean RTV of the vehicle treated group). RTV (relative tumor volume)=TVDayN/TVDay0. TVDayN and TVDay0 is the tumor volume on day N and Day 0 respectively. T/C (%)≤42% is considered as significant antitumor activity and <10% is considered as highly significant antitumor activity by the National Cancer Institute criteria.
Animal survival curve: When an individual animal reached to the termination endpoint (TV>2000 mm^3), the mouse was euthanized. The time from treatment initiation to the termination was deemed as its survival time. Survival curve was plotted by Kaplan-Meier method. Median survival time (MST) was calculated for each group. Increase of life span (ILS) was calculated according to the following formula: […]
ILS (%)>25% is considered as a biologically significant survival benefit.
The tumor volume between different groups was analyzed by two-way repeated measures ANOVA. Dunnett post hoc test was used for the comparisons with vehicle group. All data analyzed using GraphPad Prism 6.0. P<0.05 is considered to be statistically significant.
Female C57BL/6 mice were inoculated subcutaneously at right flank with MC-38 cells for tumor development. Six days after tumor inoculation, 64 mice with tumor size ranging from 50-100 mm^3 (average tumor size 71 mm^3) were selected and assigned into 8 groups using stratified randomization with 8 mice per group based upon their tumor volumes. The treatments were started from the day of randomization (defined as D0), Group 1 was treated with Vehicle (Tween 80:Ethanol:Saline—5:5:90 v/v/v), s.c., qd×14, Group 2 was treated with Anti-PD-1 10 mg/kg i.p. q4d×4, Group 3 was treated with Compound 1 3 mpk qd×5, sc followed by 1 mpk, qd×9, sc, Group 4 was treated with Compound 1 3 mpk qd×5, sc followed by 1 mpk, qd×9, sc+anti PD-1 q4d×4, ip, Group 5 was treated with Compound 1 1 mpk qd×5, sc followed by 0.3 mpk, qd×9, sc, Group 6 was treated with Compound 1 1 mpk qd×5, sc followed by 0.3 mpk, qd×9, sc+anti PD-1 q4d×4, ip, Group 7 was treated with Compound 1 0.3 mpk qd×5, sc followed by 0.1 mpk, qd×9, sc and Group 8 was treated with Compound 1 0.3 mpk qd×5, sc followed by 0.1 mpk, qd×9, sc+anti PD-1 q4d×4, ip. The tumor sizes were measured three times per week during the treatment. The entire study was terminated on D56 after start of the treatment. […]
The MC-38 tumor cells were maintained in vitro as a monolayer culture in DMEM medium supplemented with 10% heat inactivated fetal bovine serum and 100 μg/mL penicillin streptomycin at 37° C. in an atmosphere of 5% CO2 in air. The tumor cells were routinely subcultured twice weekly by trypsin-EDTA treatment. The cells growing to a confluency around 70%-80% were harvested and counted for tumor inoculation. The cultured MC-38 were harvested, re-suspended in base medium at a density of 1×10^7 cells/mL with viability >90%. Each mouse was inoculated subcutaneously at the right flank with 1×10^6 cells in 0.1 ml base medium for tumor development. […]

MC-38 tumors [2] = assay: MC-38 re-implantation study in tumor free mice (Example 3); assay type: in vivo, Mus musculus; settings: for Tumor volume (Mean ± SEM): four tumor free mice of Group 5 (0.7 mpk 5-days ON 2-days OFF x 4 cycles)
Method: Four mice in Group 5 were tumor free on D67 and 1×10^6 MC-38 cells suspended in 100 μL base DMEM were inoculated subcutaneously into the left flank. 5 naïve mice were inoculated with the same inoculation condition as control. The tumor sizes were measured three times per week during the treatment. The study was terminated on D102.
Four mice in Group 5 were tumor free on D67 and 1×10^6 MC-38 cells suspended in 100 μL base DMEM were inoculated subcutaneously into the left flank. 5 naïve mice were inoculated with the same inoculation condition as control.

[3] = 0.7 mg/kg 5-day ON 2-day OFF x 3 cycles
[4] = 1.4 mg/kg 5-day ON 2-day OFF x 3 cycles
[5] = Day 26, 0.7 mg/kg 5-day ON 2-day OFF x 3 cycles
[6] = Day 26, 1.4 mg/kg 5-day ON 2-day OFF x 3 cycles
[7] = 4 cured mice of Group 5 (0.7 mpk) re-implanted with MC-38 cells

CC(=O)N[C@@H](Cc1c[nH]c2ccccc12)C(=O)N[C@@H](CCC(=O)C=[N+]=[N-])C(=O)OC(C)C [Compound 1, Isopropyl (S)-2-((S)-2-acetamido-3-(1H-indol-3-yl)propanamido)-6-diazo-5-oxohexanoate]
Cure Rate (H22 tumors; [3]): 0% | MST (H22 tumors; [3]): 45 days | Cure Rate (H22 tumors; [4]): 0% | MST (H22 tumors; [4]): 47 days | TGI (H22 tumors; Compound 1 alone 0.7 mg/kg, p<0.001): ~80% | TGI (H22 tumors; Compound 1 alone 1.4 mg/kg, p<0.001): ~80% | BWC (H22 tumors; [5]): 0% | Mean Tumor Vol (H22 tumors; [5]): 529 ± 64 mm^3 | TGI (H22 tumors; [5]): 79% | BWC (H22 tumors; [6]): 7% | Mean Tumor Vol (H22 tumors; [6]): 465 ± 133 mm^3 | TGI (H22 tumors; [6]): 82% | ILS (MC-38 tumors [1]; Cpd. 1 0.3 mpk/0.1 mpk): 114.29% | RTV at day 12 (MC-38 tumors [1]; Cpd. 1 0.3 mpk/0.1 mpk): 1.67 ± 0.03 | MST (MC-38 tumors [1]; Cpd. 1 0.3 mpk/0.1 mpk): 30 days | ILS (MC-38 tumors [1]; Cpd. 1 1 mpk/0.3 mpk): 135.71% | RTV at day 12 (MC-38 tumors [1]; Cpd. 1 1 mpk/0.3 mpk): 0.36 ± 0.09 | MST (MC-38 tumors [1]; Cpd. 1 1 mpk/0.3 mpk): 33 days | ILS (MC-38 tumors [1]; Cpd. 1 3 mpk/1 mpk): 135.71% | RTV at day 12 (MC-38 tumors [1]; Cpd. 1 3 mpk/1 mpk): 0.11 ± 0.03 | MST (MC-38 tumors [1]; Cpd. 1 3 mpk/1 mpk): 33 days | T/C (MC-38 tumors [1]; Cpd. 1 0.3 mpk/0.1 mpk): 7.02% | TGI (MC-38 tumors [1]; Cpd. 1 0.3 mpk/0.1 mpk): 97.27% | T/C (MC-38 tumors [1]; Cpd. 1 1 mpk/0.3 mpk): 1.51% | TGI (MC-38 tumors [1]; Cpd. 1 1 mpk/0.3 mpk): 102.87% | T/C (MC-38 tumors [1]; Cpd. 1 3 mpk/1 mpk): 0.46% | TGI (MC-38 tumors [1]; Cpd. 1 3 mpk/1 mpk): 103.98% | Re-implanted cured mice still tumor free on Day 35 after re-implantation (MC-38 tumors [2]; [7]): one | Re-implanted cured mice that regrew the tumor (MC-38 tumors [2]; [7]): three | Tumor volume (Mean ± SEM) (MC-38 tumors [2]; Day 7 after re-implantation): 32 ± 14 mm^3 | Tumor volume (Mean ± SEM) (MC-38 tumors [2]; Day 9 after re-implantation): 106 ± 44 mm^3 | Tumor volume (Mean ± SEM) (MC-38 tumors [2]; Day 11 after re-implantation): 152 ± 55 mm^3 | Tumor volume (Mean ± SEM) (MC-38 tumors [2]; Day 14 after re-implantation): 373 ± 174 mm^3 | Tumor volume (Mean ± SEM) (MC-38 tumors [2]; Day 16 after re-implantation): 568 ± 258 mm^3 | Tumor volume (Mean ± SEM) (MC-38 tumors [2]; Day 18 after re-implantation): 886 ± 429 mm^3 | Tumor volume (Mean ± SEM) (MC-38 tumors [2]; Day 21 after re-implantation): 1911 ± 794 mm^3

Source: patent publication US20220117938A1, “COMBINATON THERAPY WITH A DON PRODRUG AND AN IMMUNE CHECKPOINT INHIBITOR” (DRACEN PHARMACEUTICALS, INC., priority 2019, published 2022)
